Patent publication US4914189A, “Synthetic GHRH analogs” (The Adminstrators of the Tulane Educational Fund, priority 1987, dated 1990)
Several values for one entry are separate records, joined by “and”; a condition that tells them apart may be missing. Equal entries are not always repeated.

Assays:
[1] = test system: superfused pituitary cell system; experiment: In vitro GH release, superfused pituitary cell system; format: cell-based, rat
Protocol: The compounds of the present invention were tested both in vitro in rat cell culture and in vivo in rats to determine GHRH activity. The protocols are as follows:
Twenty-four adult male or female Sprague-Dawley strain rats were decapitated for each experiment. After posterior lobes were removed, the anterior pituitaries were cut into small pieces and incubated in a Dubnoff incubator for 45 minutes at 37° C. in 10 ml. of oxygenated Medium 199 (GIBCO) containing 0.5% collagenase (Sigma Type 1), 0.25% bovine serum albumin (BSA) (Sigma RIA grade), and 5 μg./ml. Gentamicin Sulphate (Sigma). After this incubation, there were no apparent changes in the appearance of the tissue. However, the fragments could be easily dipsersed into single cells by repeated suction and expulsion from a Gilson Pipetman. After 30 to 60 Pipetman operations, the tissue fell apart; a second collagenase incubation was not usually necessary. The cell suspension was centrifuged at room temperature for 10 minutes at […]. The cell pellet was then resuspended in 1.0 ml. of medium. A small aliquot was diluted for counting the cells, and the rest or one suspension was divided into 2 equal volumes. Each volume (containing about 5× 10^6 cells, usually between 3.5 and 7.0×10^6) was mixed with 0.5 ml. Sephadex G-15 which had been equilibrated with previously oxygenated medium. The mixture of pituitary cells and Sephadex was transferred into 2 chambers of the superfusion apparatus and perfused with the medium. […]
ACTH radioimmunoassays were performed on 100 μl aliquots of undiluted superfusion medium essentially as described elsewhere (14); however, the separation of bound and free ACTH was accomplished by a polyethylene glycol facilitated second antibody method. Rat GH was measured in aliquots of undiluted or diluted superfusates to determine either basal or stimulated secretion. […]

release of pituitary GH = experiment: In vivo release of pituitary GH after one single i.v. injection in female rats; set-up: species or system rat; details: for Relative Potency (based on the effect of hpGHRH at the actual time) / Responses in plasma GH in ng GH/ml: 1.0 ug/(female) rat i.v.; for Absolute Potency (based on the average value of the four samples at -1 min.): average GH level at -1 min. 63.5 ng GH/ml plasma
Protocol: Adult female rats were used and were anesthetized with pentobarbital (6 mg/100 g, b.w.), injected i/p. 20 minutes after the injection of pentobarbital; blood samples were taken from the jugular vein (pretreated level) and immediately thereafter hpGH-RH^1-29 (as a control) or GH-RH^1-29 analogs were injected i.v. Blood samples were taken from the jugular vein 5, 15, 60 minutes after the injection. The blood samples were centrifuged, plasma was removed and the GH level was measured by RIA.
In vivo Effects of synthetic GHRH analogs on the release
of pituitary GH following one single i.v. injection of 1.0

release of GH = experiment: In vivo release of GH in male testosterone primed rats, 4-point assay method; set-up: species or system rat; details: i.v., individual values
Protocol: In vivo effect of synthetic GHRH analogs on the release of
GH in male testosterone primed rats. Results were
calculated by the 4-point assay method.
Doses injected are in μg/100 g. b.w., i.v.

GH-RH^1-29: standard/control: fragment of the first 29 residues of human growth hormone releasing factor, amide
Released GH Level Average ([1]; peptides administered for 3 minutes at 10M^-9 Concentration): 40.00 ng/mL
Released GH Level ([1]; peptides administered for 3 minutes at 10M^-9 Concentration, individual values): 62.50 ng/mL and 42.50 ng/mL and 20.50 ng/mL and 34.50 ng/mL
Potency % ([1]; relative to GH-RH^1-29 standard, 3 minutes at 10M^-9 Concentration): 100%
Relative Potency (based on the effect of hpGHRH at the actual time) (release of pituitary GH; time +5 min): 100%
Responses in plasma GH in ng GH/ml (release of pituitary GH; time +5 min): 248 ng/mL
Absolute Potency (based on the average value of the four samples at -1 min.) (release of pituitary GH; time +5 min): 390%
Relative Potency (based on the effect of hpGHRH at the actual time) (release of pituitary GH; time +15 min): 100%
Responses in plasma GH in ng GH/ml (release of pituitary GH; time +15 min): 137 ng/mL
Absolute Potency (based on the average value of the four samples at -1 min.) (release of pituitary GH; time +15 min): 215%
Relative Potency (based on the effect of hpGHRH at the actual time) (release of pituitary GH; time +60 min): 100%
Responses in plasma GH in ng GH/ml (release of pituitary GH; time +60 min): 29 ng/mL
Absolute Potency (based on the average value of the four samples at -1 min.) (release of pituitary GH; time +60 min): 45%
Relative Potency (based on the effect of hpGHRH at the actual time) (release of pituitary GH; time -1 min (pretreated level)): 100%
Responses in plasma GH in ng GH/ml (release of pituitary GH; time -1 min (pretreated level)): 66 ng/mL
Absolute Potency (based on the average value of the four samples at -1 min.) (release of pituitary GH; time -1 min (pretreated level)): 103%
plasma Gh level (release of GH; 5 minutes after injection, dose 0.05 μg/100 g. b.w.): 160 ng·mL and 540 ng·mL and 208 ng·mL and 191 ng·mL and 450 ng·mL and 286 ng·mL and 397 ng·mL
plasma Gh level (release of GH; 5 minutes after injection, dose 0.2 μg/100 g. b.w.): 370 ng·mL and 620 ng·mL and 540 ng·mL and 610 ng·mL and 870 ng·mL and 410 ng·mL and 560 ng·mL
plasma Gh level (release of GH; 15 minutes after injection, dose 0.05 μg/100 g. b.w.): 65 ng·mL and 241 ng·mL and 97 ng·mL and 70 ng·mL and 161 ng·mL and 145 ng·mL and 149 ng·mL
plasma Gh level (release of GH; 15 minutes after injection, dose 0.2 μg/100 g. b.w.): 112 ng·mL and 280 ng·mL and 199 ng·mL and 261 ng·mL and 510 ng·mL and 161 ng·mL and 207 ng·mL
